The source of these data is paper PMC8163506, “A novel ATP dependent dimethylsulfoniopropionate lyase in bacteria that releases dimethyl sulfide and acryloyl-CoA” (eLife, 2021).

This test has as its target T1, DddX (Psychrobacter sp., UniProt Z9QGV9JXN0).
T1 construct: full length (2247 bp gene), pET-22b, C-terminal His tag, E. coli BL21(DE3); dimer in solution
T1 sequence (Z9QGV9JXN0 1-748): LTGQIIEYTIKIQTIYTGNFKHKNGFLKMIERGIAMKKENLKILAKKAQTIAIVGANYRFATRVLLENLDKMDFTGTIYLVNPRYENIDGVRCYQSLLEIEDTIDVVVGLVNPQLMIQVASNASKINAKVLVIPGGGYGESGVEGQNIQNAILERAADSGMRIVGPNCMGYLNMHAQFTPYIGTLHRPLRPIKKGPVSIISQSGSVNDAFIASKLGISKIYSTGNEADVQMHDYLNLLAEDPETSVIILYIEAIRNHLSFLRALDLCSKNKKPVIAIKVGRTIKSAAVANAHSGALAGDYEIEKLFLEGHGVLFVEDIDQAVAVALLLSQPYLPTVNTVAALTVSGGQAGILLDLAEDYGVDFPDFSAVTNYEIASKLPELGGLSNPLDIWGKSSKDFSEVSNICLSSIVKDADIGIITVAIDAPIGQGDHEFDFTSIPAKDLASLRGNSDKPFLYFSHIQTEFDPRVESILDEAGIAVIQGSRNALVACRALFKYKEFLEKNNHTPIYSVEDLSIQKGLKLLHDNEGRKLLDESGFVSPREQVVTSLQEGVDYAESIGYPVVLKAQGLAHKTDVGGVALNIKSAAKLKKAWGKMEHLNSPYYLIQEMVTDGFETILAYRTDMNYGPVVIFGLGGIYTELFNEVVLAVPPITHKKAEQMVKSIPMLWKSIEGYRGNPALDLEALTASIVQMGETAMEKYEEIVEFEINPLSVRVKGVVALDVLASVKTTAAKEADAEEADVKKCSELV
As to the kind of experiment: X-ray crystal structure of complex. As to conditions: 1 mM ATP incubated with protein; ATP-grasp domain; crystals at pH 5.5, 18 °C. It is filed as binding.

With `Nc1ncnc2c1ncn2[C@@H]1O[C@H](COP(=O)(O)OP(=O)(O)OP(=O)(O)O)[C@@H](O)[C@H]1O` [ATP], the “X-ray crystal structure of complex” value was “we solved the crystal structure of DddX in complex with ATP”.
